Each structure is given as a SMILES string.

One may read the IC50 as the point on the concentration scale where inhibition reaches its midpoint.

The target in this experiment is T1, M. tuberculosis DnaB intein (Mycobacterium tuberculosis, UniProt P9WMR3).
T1 sequence (P9WMR3 400-815 limits assumed): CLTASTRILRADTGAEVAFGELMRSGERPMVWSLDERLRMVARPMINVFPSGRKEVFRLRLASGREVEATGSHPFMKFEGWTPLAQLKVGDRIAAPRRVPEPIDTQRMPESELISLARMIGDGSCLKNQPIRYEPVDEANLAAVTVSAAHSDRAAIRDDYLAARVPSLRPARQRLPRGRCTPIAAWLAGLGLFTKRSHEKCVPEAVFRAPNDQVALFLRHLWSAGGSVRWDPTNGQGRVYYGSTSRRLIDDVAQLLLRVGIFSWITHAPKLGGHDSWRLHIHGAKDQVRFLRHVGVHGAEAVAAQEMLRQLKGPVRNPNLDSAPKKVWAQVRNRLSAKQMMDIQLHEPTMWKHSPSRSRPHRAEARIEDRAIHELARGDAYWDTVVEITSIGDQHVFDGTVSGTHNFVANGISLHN
Nature of the experiment: biochemical. The format is biochemical.
The molecule `O=C(Sc1ccccc1)c1ccc2ncsc2c1` [Compound 68] displayed a 50% inhibitory concentration (IC50) of 9 µM. This lies in the single-digit micromolar range.
The value for `N#CC1(C#N)C(c2ccccc2Cl)C1(C#N)C#N` [Compound 21] was 15 µM; that for `O=S(=O)(c1ccc(Cl)c(Cl)c1)c1snnc1-c1ccccc1` [Compound 7] was 6 µM.
The value for `O=C(Oc1ccc(Cl)cc1)c1snnc1-c1ccccc1` [Compound 23] was less than 5 µM; that for `CS(=O)(=O)c1cc(C(F)(F)F)cc(S(C)(=O)=O)c1S(C)(=O)=O` [Compound 3] was 17 µM.
For `CCOC(=O)c1cc(C#N)c(Sc2nnc(SC)s2)nc1C(F)(F)F` [Compound 72] the value was less than 5 µM; for `COc1cccc(N(NC(=O)C(O)(c2cccc(C(F)(F)F)c2)c2cccc(C(F)(F)F)c2)C(=O)CCl)c1` [Compound 51], less than 5 µM; for `N#CC(N)=C(C#N)NCc1ccccc1Sc1ccc(Cl)cc1` [Compound 29], less than 5 µM.
In the case of `N#CC1(C#N)C(c2cccc(I)c2)C(C(N)=O)N2C=Cc3ccccc3C21` (stereo not shown) [Compound 17], the IC50 amounted to 15 µM.
For `CCOC(=O)CSc1nc2c(c(-c3cccs3)c1C#N)CN(C)CC2` [Compound 56] the value was 10 µM.
For `Cc1cc(Oc2c([N+](=O)[O-])cc(C(F)(F)F)cc2[N+](=O)[O-])ccc1Cl` [Compound 64] the value was less than 5 µM; for `O=C(Nc1ccccc1)c1nnsc1S(=O)(=O)c1ccc(Cl)cc1` [Compound 10], 7 µM; for `O=S(=O)(c1cccc(C(F)(F)F)c1)c1snnc1-c1ccccc1` [Compound 35], less than 5 µM.
For `O=S(=O)(c1ccc(Br)cc1)c1snnc1-c1ccccc1` [Compound 6] the value was 13 µM; for `Oc1cc(OCc2ccc(C(F)(F)F)cc2)ccc1-c1cc[nH]n1` [Compound 44], less than 5 µM; for `O=C(Nn1c(C2CCCCC2)nc2ccccc2c1=O)c1cc([N+](=O)[O-])cc([N+](=O)[O-])c1Cl` [Compound 53], less than 5 µM.
Turning to `CCOC(=O)c1nnc(-c2ccccc2)nc1Sc1ccccc1C(=O)OC` [Compound 41], the half-maximal inhibitory concentration (IC50) was less than 5 µM.
For `Cn1cc(C(=O)c2cccc(Cl)c2Cl)cc1C(=O)C(Cl)(Cl)Cl` [Compound 40] the value was less than 5 µM; for `Cc1cc(S(=O)(=O)c2ccc(C(F)(F)F)cc2[N+](=O)[O-])c(Cl)cc1Cl` [Compound 66], less than 5 µM; for `COC(=O)c1sc(S(C)(=O)=O)c(C#N)c1-c1cc(C(C)(C)C)oc1C` [Compound 33], less than 5 µM.
The value for `CCCN(CCC)S(=O)(=O)c1ccc(C(=O)SCC(=O)OCC)cc1` [Compound 2] was 13 µM; that for `CC1(C)CC(=O)c2c(S(C)(=O)=O)sc(C(=O)OCc3ccccc3)c2C1` [Compound 30] was less than 5 µM; that for `COc1ccc(NC(=O)C(Cl)=C(Cl)[S+]([O-])Cc2ccccc2)cn1` (stereo not shown) [Compound 9] was 7 µM.
The value for `O=C(c1nnsc1[S+]([O-])c1ccc(Cl)cc1)N1CCCCC1` (stereo not shown) [Compound 11] was 8 µM; that for `O=[N+]([O-])c1cc(C(F)(F)F)cc([N+](=O)[O-])c1Sc1nc2ccccc2[nH]1` [Compound 55] was 7 µM.
For `Oc1ccc(Br)cc1CNc1cccc(C(F)(F)F)c1` [Compound 70], the IC50 was 5 µM.
For `N#CCSc1ccc(C#N)cc1` [Compound 24] the value was 12 µM; for `[O-][S+](c1ccc(C(F)(F)F)cc1)c1cnn2c(Cl)nnc2c1` (stereo not shown) [Compound 45], less than 5 µM; for `O=C(CCl)N1CCN2C(=O)c3ccccc3C12c1ccc(Cl)cc1` (stereo not shown) [Compound 13], 8 µM.
`Oc1cc2c(cc1C(c1ccc(Cl)c(Cl)c1)N1CCCC1)OCO2` (stereo not shown) [Compound 1] displayed a concentration for half-maximal inhibition (IC50) of 30 µM.
In turn, `COc1ccc(NC(=O)C(Cl)=C(Cl)[S+]([O-])Cc2ccc(C)cc2)cn1` (stereo not shown) [Compound 43] returned a half-inhibitory concentration (IC50) of less than 5 µM.
The value for `C=CCn1c(Sc2ncnc3c2sc(=S)n3CC=C)nnc1-c1ccccc1` [Compound 27] was less than 5 µM.
Turning to `CC1(C)CC(=O)C2(C(=O)C1)C(c1ccc(Cl)cc1Cl)C2(C#N)C#N` (stereo not shown) [Compound 37], the concentration for half-maximal inhibition (IC50) was less than 5 µM.
The value for `CCOC(=O)c1cc(C#N)c(Sc2nnc(SCC3CC3)s2)nc1C(F)(F)F` [Compound 71] was less than 5 µM; that for `Oc1cc2c(cc1C(c1ccc(C(F)(F)F)cc1)N1CCOCC1)OCO2` (stereo not shown) [Compound 69] was 37 µM.
For `O=C(OCn1ncc(Cl)c(Cl)c1=O)c1cccc(C(F)(F)F)c1` [Compound 38] the value was less than 5 µM; for `O=C(c1c[nH]c(C(=O)C(Cl)(Cl)Cl)c1)c1cccc(Cl)c1Cl` [Compound 59], less than 5 µM.

These data come from patent US7553832B2, “Methods and compositions for specific inhibition of protein splicing by small molecules” (Boston Biomedical Research Institute, priority 2005, dated 2009).
